ChEMBL document CHEMBL2177100, “Structural optimization and structure-activity relationships of N2-(4-(4-Methylpiperazin-1-yl)phenyl)-N8-phenyl-9H-purine-2,8-diamine derivatives, a new class of reversible kinase inhibitors targeting both EGFR-activating and resistance mutations” (J Med Chem, 2012)
pIC50, pKd: −log10 of the molar value. The source made the active and inactive calls. The rule behind the calls is not given here.

Legend:
[1] = molecular target: Tyrosine-protein kinase JAK3 (Homo sapiens, UniProt P52333); test: Inhibition of human recombinant JAK3 by radiometric kinase assay
[2] = test system: NCI-H1975; test: Cytotoxicity against human NCI-H1975 cells incubated for 72 hrs by MTT assay; type: functional, cell-based; conditions: NCI-H1975, 72 h
[3] = molecular target: MAP kinase-interacting serine/threonine-protein kinase 1 (Homo sapiens, UniProt Q9BUB5); test: Inhibition of human recombinant MNK1 by radiometric kinase assay
[4] = molecular target: Rho-associated protein kinase 2 (Homo sapiens, UniProt O75116); test: Inhibition of human recombinant ROCK2 by radiometric kinase assay
[5] = test system: NCI-H292; test: Cytotoxicity against human NCI-H292 cells incubated for 72 hrs by MTT assay; type: functional, cell-based; conditions: NCI-H292, 72 h
[6] = test system: Mus musculus; test: Inhibition of EGFR phosphorylation in human NCI-H1975 cells xenografted in BALB/c mouse at 50 mg/kg/day, po for 10 days by immunohistochemistry; type: functional, organism-based
[7] = molecular target: RAC-alpha serine/threonine-protein kinase (Homo sapiens, UniProt P31749); test: Inhibition of human recombinant PKBalpha by radiometric kinase assay
[8] = molecular target: Serine/threonine-protein kinase WNK1 (Homo sapiens, UniProt Q9H4A3); test: Inhibition of human recombinant WNK1 by radiometric kinase assay
[9] = molecular target: MAP kinase-interacting serine/threonine-protein kinase 2 (Homo sapiens, UniProt Q9HBH9); test: Inhibition of human recombinant MNK2 by radiometric kinase assay
[10] = AUC (0 to 24 hrs) in Sprague-Dawley rat at 20 mg/kg, po; type: ADME, organism-based; parameters: time < 24 hr, dose 20 mg/kg, route oral; conditions: plasma
[11] = test system: HepG2; test: Cytotoxicity against human HepG2 cells incubated for 72 hrs by MTT assay; type: functional, cell-based; conditions: HepG2, 72 h
[12] = molecular target: Protein kinase C theta type (Homo sapiens, UniProt Q04759); test: Inhibition of human recombinant PKCtheta by radiometric kinase assay
[13] = molecular target: Mitogen-activated protein kinase 14 (Homo sapiens, UniProt Q16539); test: Inhibition of human recombinant p38alpha by radiometric kinase assay
[14] = test system: MDA-MB-231; test: Cytotoxicity against human MDA-MB-231 cells incubated for 72 hrs by MTT assay; type: functional, cell-based; conditions: MDA-MB-231, 72 h
[15] = Inhibition of human recombinant CaMK2 by radiometric kinase assay
[16] = Binding affinity to […] EGFR […] mutant by KINOMEscan kinase binding assay
[17] = test system: NCI-H1975; test: Antitumor activity against human NCI-H1975 cells xenografted in BALB/c mouse assessed as reduction in Ki67 expression at 50 mg/kg/day, po for 10 days by immunohistochemistry; type: functional, organism-based
[18] = molecular target: Receptor tyrosine-protein kinase erbB-2 (Homo sapiens, UniProt P04626); test: Inhibition of human recombinant ERBB2 by radiometric kinase assay
[19] = Cytotoxicity against human HCC827 cells incubated for 72 hrs by MTT assay; type: functional, cell-based; conditions: HCC827, 72 h
[20] = test system: PC-9; test: Cytotoxicity against human PC9 cells incubated for 72 hrs by MTT assay; type: functional, cell-based; conditions: PC-9, 72 h
[21] = test system: Mus musculus; test: Toxicity in human NCI-H1975 cells xenografted BALB/c mouse assessed as body weight loss at 50 mg/kg, po qd; type: organism-based; parameters: dose 50 mg/kg, route oral; conditions: in vivo

Chain of Protein kinase C theta type (Q04759 whole entry): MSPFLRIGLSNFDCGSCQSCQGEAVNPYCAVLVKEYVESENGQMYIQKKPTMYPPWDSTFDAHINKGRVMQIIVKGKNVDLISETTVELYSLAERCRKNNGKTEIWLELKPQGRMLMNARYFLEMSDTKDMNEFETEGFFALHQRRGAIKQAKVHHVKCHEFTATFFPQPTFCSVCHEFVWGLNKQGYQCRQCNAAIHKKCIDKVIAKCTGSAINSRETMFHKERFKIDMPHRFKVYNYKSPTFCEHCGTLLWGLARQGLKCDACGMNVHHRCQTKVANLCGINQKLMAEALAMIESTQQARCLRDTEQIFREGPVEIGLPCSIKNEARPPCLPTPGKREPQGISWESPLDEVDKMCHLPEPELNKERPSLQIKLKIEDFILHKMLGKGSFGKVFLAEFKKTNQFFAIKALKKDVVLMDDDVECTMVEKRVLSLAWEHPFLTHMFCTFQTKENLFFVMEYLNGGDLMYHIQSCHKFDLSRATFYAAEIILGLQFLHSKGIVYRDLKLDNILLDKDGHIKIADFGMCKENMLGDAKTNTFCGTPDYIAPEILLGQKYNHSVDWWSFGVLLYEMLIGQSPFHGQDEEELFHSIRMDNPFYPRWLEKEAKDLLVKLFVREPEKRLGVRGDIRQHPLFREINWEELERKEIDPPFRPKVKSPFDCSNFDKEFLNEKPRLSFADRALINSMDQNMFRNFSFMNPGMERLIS
Chain of Receptor tyrosine-protein kinase erbB-2 (P04626 whole entry): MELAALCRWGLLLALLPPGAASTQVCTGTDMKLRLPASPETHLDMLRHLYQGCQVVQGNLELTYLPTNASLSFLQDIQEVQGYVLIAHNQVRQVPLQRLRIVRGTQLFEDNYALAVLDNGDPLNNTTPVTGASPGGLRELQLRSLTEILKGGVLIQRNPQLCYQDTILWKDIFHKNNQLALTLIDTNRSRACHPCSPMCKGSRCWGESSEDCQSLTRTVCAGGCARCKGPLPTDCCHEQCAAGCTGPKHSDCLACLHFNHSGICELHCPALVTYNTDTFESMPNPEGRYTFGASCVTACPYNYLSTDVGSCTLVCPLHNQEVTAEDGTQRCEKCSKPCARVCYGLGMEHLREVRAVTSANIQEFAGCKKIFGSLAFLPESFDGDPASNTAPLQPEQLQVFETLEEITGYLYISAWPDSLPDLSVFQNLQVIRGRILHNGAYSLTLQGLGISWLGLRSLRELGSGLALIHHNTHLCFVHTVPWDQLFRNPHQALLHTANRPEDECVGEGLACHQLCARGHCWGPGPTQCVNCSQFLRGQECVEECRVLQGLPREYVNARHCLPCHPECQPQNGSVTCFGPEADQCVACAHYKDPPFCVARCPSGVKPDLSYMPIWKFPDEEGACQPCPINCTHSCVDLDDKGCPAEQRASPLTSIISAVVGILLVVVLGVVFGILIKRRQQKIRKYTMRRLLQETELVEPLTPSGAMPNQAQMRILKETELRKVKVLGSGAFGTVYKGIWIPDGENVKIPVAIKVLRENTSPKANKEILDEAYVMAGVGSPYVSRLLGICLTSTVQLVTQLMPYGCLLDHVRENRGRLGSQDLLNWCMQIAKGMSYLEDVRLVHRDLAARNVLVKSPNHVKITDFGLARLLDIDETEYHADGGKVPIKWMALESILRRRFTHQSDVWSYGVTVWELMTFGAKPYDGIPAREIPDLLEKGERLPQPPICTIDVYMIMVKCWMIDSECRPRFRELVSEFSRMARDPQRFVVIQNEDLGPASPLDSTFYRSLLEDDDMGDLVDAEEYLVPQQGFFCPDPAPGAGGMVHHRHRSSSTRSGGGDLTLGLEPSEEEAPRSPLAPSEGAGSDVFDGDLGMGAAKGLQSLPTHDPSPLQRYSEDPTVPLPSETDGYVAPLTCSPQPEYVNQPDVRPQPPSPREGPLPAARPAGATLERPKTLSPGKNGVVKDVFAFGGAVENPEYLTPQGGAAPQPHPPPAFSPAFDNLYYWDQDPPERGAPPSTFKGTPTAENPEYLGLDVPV
Chain of Mitogen-activated protein kinase 14 (Q16539 whole entry): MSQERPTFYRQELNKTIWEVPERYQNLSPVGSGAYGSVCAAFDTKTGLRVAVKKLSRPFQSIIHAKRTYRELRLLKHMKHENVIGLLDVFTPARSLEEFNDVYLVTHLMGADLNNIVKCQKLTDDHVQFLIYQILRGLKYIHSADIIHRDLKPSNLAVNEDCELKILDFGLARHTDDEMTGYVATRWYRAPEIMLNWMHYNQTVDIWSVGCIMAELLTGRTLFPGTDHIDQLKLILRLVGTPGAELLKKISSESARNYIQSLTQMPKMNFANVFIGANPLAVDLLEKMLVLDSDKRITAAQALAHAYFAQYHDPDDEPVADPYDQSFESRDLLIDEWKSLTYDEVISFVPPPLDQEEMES
Chain of MAP kinase-interacting serine/threonine-protein kinase 2 (Q9HBH9 whole entry): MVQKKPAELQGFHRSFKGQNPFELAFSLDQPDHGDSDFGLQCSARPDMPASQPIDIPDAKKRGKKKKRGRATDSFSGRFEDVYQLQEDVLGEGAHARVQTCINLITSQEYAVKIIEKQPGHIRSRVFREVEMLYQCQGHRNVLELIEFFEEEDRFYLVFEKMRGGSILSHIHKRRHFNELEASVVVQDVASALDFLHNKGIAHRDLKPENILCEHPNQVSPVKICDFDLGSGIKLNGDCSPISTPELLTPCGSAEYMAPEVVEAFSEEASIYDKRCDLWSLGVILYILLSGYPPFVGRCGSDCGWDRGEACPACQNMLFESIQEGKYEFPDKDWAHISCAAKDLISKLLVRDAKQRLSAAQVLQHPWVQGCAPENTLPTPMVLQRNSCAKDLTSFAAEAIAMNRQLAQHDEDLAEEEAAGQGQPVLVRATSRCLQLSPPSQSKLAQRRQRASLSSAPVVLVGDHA
Chain of MAP kinase-interacting serine/threonine-protein kinase 1 (Q9BUB5 whole entry): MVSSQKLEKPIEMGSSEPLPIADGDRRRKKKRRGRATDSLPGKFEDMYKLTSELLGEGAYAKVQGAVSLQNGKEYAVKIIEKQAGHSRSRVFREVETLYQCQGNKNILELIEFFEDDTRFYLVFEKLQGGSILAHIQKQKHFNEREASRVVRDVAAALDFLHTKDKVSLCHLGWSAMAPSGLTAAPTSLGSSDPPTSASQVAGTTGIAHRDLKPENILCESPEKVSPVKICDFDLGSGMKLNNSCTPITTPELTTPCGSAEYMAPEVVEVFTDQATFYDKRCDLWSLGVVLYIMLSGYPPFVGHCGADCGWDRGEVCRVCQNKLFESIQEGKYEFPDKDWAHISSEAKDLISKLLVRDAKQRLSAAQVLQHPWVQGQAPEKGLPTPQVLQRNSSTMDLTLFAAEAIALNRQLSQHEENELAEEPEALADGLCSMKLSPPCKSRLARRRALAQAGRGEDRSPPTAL
Chain of Rho-associated protein kinase 2 (O75116 whole entry): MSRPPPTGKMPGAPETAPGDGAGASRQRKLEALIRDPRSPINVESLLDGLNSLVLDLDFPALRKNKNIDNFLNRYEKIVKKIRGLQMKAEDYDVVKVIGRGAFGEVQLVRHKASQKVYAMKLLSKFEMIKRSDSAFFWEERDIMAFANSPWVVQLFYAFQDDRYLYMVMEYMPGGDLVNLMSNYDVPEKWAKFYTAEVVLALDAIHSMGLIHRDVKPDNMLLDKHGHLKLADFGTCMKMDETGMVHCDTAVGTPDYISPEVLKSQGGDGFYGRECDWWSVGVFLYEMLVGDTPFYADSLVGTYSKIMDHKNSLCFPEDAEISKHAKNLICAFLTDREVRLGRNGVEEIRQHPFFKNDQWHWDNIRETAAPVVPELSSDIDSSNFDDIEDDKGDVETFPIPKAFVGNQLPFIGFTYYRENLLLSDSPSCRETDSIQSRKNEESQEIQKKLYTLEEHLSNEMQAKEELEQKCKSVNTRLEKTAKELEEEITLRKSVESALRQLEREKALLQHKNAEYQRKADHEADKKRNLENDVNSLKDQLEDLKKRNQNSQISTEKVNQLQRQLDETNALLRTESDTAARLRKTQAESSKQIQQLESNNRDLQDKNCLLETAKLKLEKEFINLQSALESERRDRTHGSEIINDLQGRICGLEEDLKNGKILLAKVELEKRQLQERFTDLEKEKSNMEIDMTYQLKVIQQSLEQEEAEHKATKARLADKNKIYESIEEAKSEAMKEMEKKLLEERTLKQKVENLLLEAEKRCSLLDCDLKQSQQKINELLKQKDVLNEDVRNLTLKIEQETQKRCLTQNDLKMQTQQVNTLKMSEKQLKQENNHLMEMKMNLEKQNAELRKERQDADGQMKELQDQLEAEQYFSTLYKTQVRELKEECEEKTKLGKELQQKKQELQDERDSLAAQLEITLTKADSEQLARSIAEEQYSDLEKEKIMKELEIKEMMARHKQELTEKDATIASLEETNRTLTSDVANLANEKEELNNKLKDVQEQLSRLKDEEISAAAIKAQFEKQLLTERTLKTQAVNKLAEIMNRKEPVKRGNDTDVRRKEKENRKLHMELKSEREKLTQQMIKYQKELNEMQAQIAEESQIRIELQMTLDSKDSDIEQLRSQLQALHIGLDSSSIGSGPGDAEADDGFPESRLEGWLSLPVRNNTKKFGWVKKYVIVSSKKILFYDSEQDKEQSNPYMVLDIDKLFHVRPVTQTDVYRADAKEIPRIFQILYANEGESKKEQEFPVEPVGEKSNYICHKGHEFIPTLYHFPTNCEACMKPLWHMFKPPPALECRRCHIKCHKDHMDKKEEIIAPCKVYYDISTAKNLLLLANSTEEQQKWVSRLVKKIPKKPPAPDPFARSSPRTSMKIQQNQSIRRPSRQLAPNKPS

Compound: CN1CCN(c2ccc(Nc3ncc4nc(Nc5ccccc5)n(C5CCCC5)c4n3)cc2)CC1
- pIC50 [1]: 5.59
- pIC50 [2]: 6.44
- pIC50 [3]: 5.17
- pIC50 [4]: < 5.00
- pIC50 [5]: 7.35
- inhibition [6]: Active
- pIC50 [7]: < 5.00
- pIC50 [8]: < 5.00
- pIC50 [9]: 5.49
- AUC(0-t) at 24 h [10]: 2140 ng·h/mL
- pIC50 [11]: < 5.30
- pIC50 [12]: 5.44
- pIC50 [13]: 6.64
- pIC50 [14]: 5.30
- pIC50 [15]: < 5.00
- pKd [16]: 9.30
- Activity [17]: Active
- pIC50 [18]: 7.22
- pIC50 [19]: > 11.00
- pIC50 [20]: 9.66
- Activity [21]: 4.4%
